pKd: −log10 of the molar value. Like-named read-outs stand apart in the source and are kept apart here. Ends that are not written are not given here.
Key:
USP33 DUSP2 domain [1] = target: T1, USP33 DUSP2 domain (Homo sapiens, UniProt Q8TEY7); experiment: FP-monitored affinity measurements, USP33 DUSP2; assay type: binding; conditions: competitive FP: unlabeled peptide (N-acetylated, C-amidated) against protein with 10 nM FITC-labeled peptide; 50 mM phosphate pH 7.4, room temperature; technical triplicate; read-out: KD, USP33 DUSP2
T1 construct: USP33_DUSP2; Q8TEY7; DUSP2; 806; 921; 6xHis-GST (N, cleaved yes); made in house; host or cells: Escherichia coli BL21-Gold (DE3)
T1 sequence (Q8TEY7 with tags, fused parts or gaps): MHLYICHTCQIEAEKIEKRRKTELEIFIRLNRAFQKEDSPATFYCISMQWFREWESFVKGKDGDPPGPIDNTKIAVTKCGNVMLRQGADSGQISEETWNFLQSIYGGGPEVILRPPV
Protocol: (§1) Proteins were expressed in Escherichia coli (E.coli) BL21-Gold (DE3) bacteria. The cDNAs encoding N-terminal 6-histidine-glutathione S-transferase tagged (6xHis-GST), 6xHis-tagged or GST-tagged protein domains in pETM33, pETM11, pGEX6P1 expression vectors respectively, were obtained from Genescript or kindly provided by MRC-PPU (Suppl. Data 1) The bacteria were transformed with the plasmid and grew at 37 °C in 2YT (5 g/L NaCl, 16 g/L tryptone and 10 g/L yeast extract) supplemented with Kanamycin (30 μg/mL) until reaching an OD600 of 0.7. Protein expression was induced with 0.3 mM isopropyl β-D-1 thiogalactopyranoside (IPTG) for 18 h at 18 °C while shaking. For zinc-finger domains, 50 μM of ZnSO4 was added during expression. The bacterial cultures were pelleted for 15 minutes at 4000 x g at 4 °C and stored at −20 °C until purification. The pellets were resuspended in lysis buffer (1× phosphate-buffered saline (PBS), 0.5 % Triton-X, 5 mM MgCl2, 10 μg/mL lysozyme, cOmplete^TM EDTA-free protease inhibitor cocktail (Roche), 10 μg/mL DNAseI) and incubated for 1 h shaking at 4 °C. […] The supernatant was incubated with glutathione (GSH) Sepharose (Cytiva) or Ni2+ Sepharose (Cytiva) for 1 h at 4 °C while shaking. The beads with the bound protein were washed with 1x PBS and eluted with 10 mM reduced glutathione in 50 mM Tris pH 8.0. For fluorescence polarization experiments, the proteins were not eluted from the beads, and the 6xHis-GST tag was cleaved overnight on GSH Sepharose beads at 4 °C while shaking with PreScission Protease in cleavage buffer (50 mM Tris pH 7.5, 150 mM NaCl, 1 mM DTT). The sample containing the cleaved domain was separated from the tag and protease and buffer-exchanged to 50 mM sodium phosphate buffer pH 7.4 with 1 mM DTT using a PD-10 desalting column (Cytiva). The purity and size of the proteins were analyzed by SDS-PAGE electrophoresis.
(§2) The measurements were performed at room temperature in a non-binding black half area 96-well plate (Corning) with a total volume of 50 μL per well. Peptides were obtained from GeneCust (France) with >95% purity. FITC-labeled peptides (N-terminally FITC-labeled without spacer and C-terminally amidated) were dissolved in dimethyl sulfoxide (DMSO), and unlabeled peptides (N-terminally acetylated and C-terminally amidated) were dissolved in 50 mM phosphate buffer pH 7.4. Saturation measurements were performed using a serial dilution of the protein domains in phosphate buffer (25 μL) and the addition of 10 nM FITC-labeled peptide (in phosphate buffer supplemented with 2 mM DTT) (25 μL). […] All measurements were performed in three technical replicates. The data were analyzed using GraphPad Prism version 9.2.0 for MacOS (GraphPad Software, San Diego, California USA, www.graphpad.com). The saturation curves were fitted to the quadratic equation, and the displacement curves were fitted to a sigmoidal dose-response equation as described previously.

USP20 DUSP2 domain [2] = target: T2, USP20 DUSP2 domain (Homo sapiens, UniProt Q9Y2K6); experiment: FP-monitored affinity measurements, USP20 DUSP2; assay type: binding
T2 construct: USP20_DUSP2; Q9Y2K6; DUSP2; 776; 894; 6xHis-GST (N, cleaved yes); made in house; host or cells: Escherichia coli BL21-Gold (DE3)
Protocol: as §1, §2

USP20 DUSP2 domain [3] = target: T2, USP20 DUSP2 domain; experiment: Peptide SPOT array, USP20 DUSP2; assay type: binding; conditions: for Average: peptide SPOT array intensity minus background, mean of 2 replicas; for Average / Normalize to peptide with higher intensity %: sheet S5A; for Normalize to higher intensity (%) / Normalize to peptide with higher intensity %: peptide SPOT array; for Normalize to higher intensity (%): USP20 DUSP2, average normalised to the highest intensity (ARNTL2 = 100); for Normalize to peptide with higher intensity %: average normalized to the peptide with highest intensity (ARNTL2 = 100);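 as to all read-outs here: GST-tagged domain probed overnight at 4 °C on peptides made on cellulose membranes, bound protein detected via HRP-coupled anti-GST antibody, spot intensity from image analysis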
Protocol: (§3) Peptides were synthesized on cellulose membranes with standard Fluoroenylmethylox-ycarbonyl (Fmoc) chemistry using a Multipep automated synthesizer at INTAVIS (Tübingen, Germany) or ordered from JPT (PepSpots). The membranes were activated with methanol for 5 min and washed three times for 5 min with TBST (50 mM Tris, 137 mM NaCl, 2.7 mM KCl, pH 8.0, 0.05% Tween-20). The membranes were incubated with blocking buffer (5% skim milk powder in TBST) for 2 h at room temperature while shaking. The membranes were incubated with the GST-tagged protein diluted at the desired concentration in blocking buffer and incubated overnight at 4 °C while shaking. The membrane was rinsed 3 times with TBST and incubated with HRP-conjugated anti-GST antibody (Cytiva, RPN1236; 1:3000 dilution) in blocking buffer for 1 h at 4 °C while shaking. […] The images were analyzed in Fiji (ImageJ2 version 2.9.0).

USP33 DUSP2 domain [4] = target: T1, USP33 DUSP2 domain; experiment: Peptide SPOT array, USP33 DUSP2; assay type: binding; conditions: average normalised to the highest intensity (CCDC88B = 100)
Protocol: as §3

[5] = tested on: USP auxiliary domains and full-length CYLD and USP7 (baits); experiment: ProP-PD selections against the HD2 library; assay type: binding, human; conditions: for mean_counts_% / specificity: ProP-PD peptide level
Protocol: We generated a collection of 29 USP ADs and two full-length USPs (CYLD and USP7). The collection was biased towards domains that are present in several USPs, such as zf-UBP domains, UBL domains and DUSP domains (Suppl. Data 1). We also included ADs only found in specific USPs, such as the three CAP-Gly domains of CYLD and the C-terminal domain of USP25. […] The peptide-coding regions of the phage pools were analyzed by next-generation sequencing (NGS), mapped to the corresponding proteins, and filtered for high/medium confidence ligands based on established criteria (with confidence level 4 being the highest).
as §1
The human disorderome library was used for four rounds of phage display selections. GST-tagged, 6xHis-tagged or GST-6xHis purified proteins were used as baits and GST was used as control by immobilization on a 96-well MaxiSorp plate (Nunc) overnight at 4 °C while shaking (10 μg of protein in 100 μL PBS). The wells containing the immobilized proteins were blocked with 0.5% BSA in PBS for 1 hour at 4 °C while shaking. The phage library was prepared by precipitation in 1/5th volume PEG/NaCl (20% PEG-8000 + 0.4 M NaCl), incubated for 10 min on ice, followed by centrifugation at 10,000 × g for 10 min at 4 °C and resuspended in PBS. The GST-coated wells were washed four times with 0.05% Tween 20 in PBS, and 100 μL/well phage library was added and incubated 1 h at 4 °C while shaking. The protein-coated wells were washed four times with 0.05% Tween 20 in PBS, and the phage solution from the GST-coated wells was transferred to the protein-coated wells and incubated 2 h at 4 °C while shaking. The unbound phages were removed by washing 5 times with 0.05% Tween 20 in PBS, and the bound phages were eluted with 100 μL/well log-phase E.coli OmniMAX by incubating for 30 min at 37 °C while shaking. M13KO7 helper phages (10^11 PFU/mL) were added to each well and incubated for 45 min at 37 °C while shaking. […]

[6] = bait CYLD_CAP-Gly-2 (Q9NQC7 235-307)
[7] = bait CYLD_CAP-Gly-1 (Q9NQC7 8-210), collapsed regions of overlapping peptides
[8] = bait CYLD_CAP-Gly-2 (Q9NQC7 235-307), collapsed regions of overlapping peptides

T2 sequence (Q9Y2K6 with tags, fused parts or gaps): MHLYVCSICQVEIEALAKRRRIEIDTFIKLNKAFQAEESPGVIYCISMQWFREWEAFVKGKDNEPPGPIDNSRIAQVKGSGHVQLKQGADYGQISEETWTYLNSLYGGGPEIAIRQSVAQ

Row | Compound | Average (USP20 DUSP2 domain [3]) | Normalize to higher intensity (%) (USP20 DUSP2 domain [3]) | Normalize to peptide with higher intensity % (USP20 DUSP2 domain [3]) [%] | Normalize to higher intensity (%) (USP33 DUSP2 domain [4]) | also measured
1 | CC[C@H](C)[C@H](NC(=O)[C@H](Cc1ccc(O)cc1)NC(=O)[C@@H]1CCCN1)C(=O)N1CCC[C@H]1C(=O)N[C@@H](CCSC)C(=O)N[C@@H](CC(=O)O)C(=O)N[C@@H](CC(=O)O)C(=O)N[C@@H](CC(=O)O)C(=O)N[C@@H](C)C(=O)N[C@@H](CCC(N)=O)C(=O)N[C@@H](CC(C)C)C(=O)N[C@@H](CCCNC(=N)N)C(=O)N[C@@H](CO)C(=O)N[C@@H](Cc1ccccc1)C(=O)N[C@@H](CC(=O)O)C(=O)N[C@@H](CCC(N)=O)C(=O)N[C@@H](CC(C)C)C(=O)N[C@@H](CO)C(=O)O [F572A] |  |  |  |  | pKd (USP33 DUSP2 domain [1]): < 3.05; pKd (USP20 DUSP2 domain [2]; competitive FP: unlabeled peptide (N-acetylated, C-amidated) against protein with 10 nM FITC-labeled peptide, 50 mM phosphate pH 7.4, room temperature, technical triplicate, read-out: KD, USP20 DUSP2): < 3.22
2 | CC[C@H](C)[C@H](NC(=O)[C@H](Cc1ccc(O)cc1)NC(=O)[C@@H]1C[C@@H](O)CN1C(C)=O)C(=O)N1CCC[C@H]1C(=O)N[C@@H](CCSC)C(=O)N[C@@H](CC(=O)O)C(=O)N[C@@H](CC(=O)O)C(=O)N[C@@H](CC(=O)O)C(=O)N[C@@H](Cc1ccccc1)C(=O)N[C@@H](CCC(N)=O)C(=O)N[C@@H](CC(C)C)C(=O)N[C@@H](CCCNC(=N)N)C(=O)N[C@@H](CO)C(=O)N[C@@H](Cc1ccccc1)C(=O)N[C@@H](CC(=O)O)C(=O)N[C@@H](CCC(N)=O)C(=O)N[C@@H](CC(C)C)C(=O)N[C@@H](CO)C(N)=O [HyPro-HIF1A564-581] |  |  |  |  | pKd (USP33 DUSP2 domain [1]): 5.15
3 | ATLATAWSLVEAAGLD [BAHCC1_2] | -15.5033 | -8.681 | -8.681 | -24.9243 | 
4 | Ac-PYIPMDKDFQLRSFDQLS-NH2 [D570K] |  |  |  |  | pKd (USP33 DUSP2 domain [1]): 5.00
5 | Ac-PYIPMDKDFQLRSFDQLS-NH2 [HIF1A_D570K] |  |  |  |  | pKd (USP20 DUSP2 domain [2]; USP20_DUSP2, FP displacement by unlabelled peptide, read-out: KD): 4.73
6 | DLLSVAEMVALVEQRA [FBXO46_168-183] |  |  |  |  | mean_counts_% [5, 6]: 16.99%; specificity [5, 6]: 1.00
7 | EAGLALRTDLQGEAQI [ZNF783] | -16.4483 | -9.211 | -9.211 | 68.6966 | 
8 | EEDVLAFNLQHLATLA [BAHCC1_1] | -22.4783 | -12.59 | -12.5871 | 29.5039 | 
9 | EGTEVAFPLLVSHRSQ [EMSY] | -0.4433 | -0.2483 | -0.2483 | 1.956 | 
10 | EKEDSCFELLHRAVGH [ASB8] | -31.4033 | -17.58 | -17.5849 | 10.516 | 
11 | GGLTDLSSLIQAGQQF [SGTB] | 27.0767 | 15.16 | 15.1621 | 19.7113 | 
12 | KEQLSSFDISPREKLI [ARNTL2] | 178.582 | 100 | 100 | 36.7483 | 
13 | KGHSRDFVLRRDLSAT [ZIC5] | 72.2767 | 40.47 | 40.4726 | 49.982 | 
14 | KMGSDEFDISPRISKQ [MGA] | 138.987 | 77.83 | 77.8281 | 61.0297 | 
15 | LRHPSGWWLVENEDRQ [NOXO1] | 44.4667 | 24.9 | 24.8999 | 27.858 | 
16 | MNFNVWNIKEMLSIPS [IHO1] | -8.778 | -4.916 | -4.916 | -0.2743 | 
17 | NGLDIAPRYFGFIKAC [SLC17A1] | 7.792 | 4.363 | 4.363 | 22.3834 | 
18 | PDAELQRMEQEAERRR [RBM25_558-573] |  |  |  |  | specificity ([5]; bait CYLD_CAP-Gly-1 (Q9NQC7 8-210)): 0.95; max_confidence [5, 7]: 2; max_specificity [5, 7]: 0.95
19 | PYIPMDDDFQARSFDQLS [L574A] |  |  |  |  | pKd (USP33 DUSP2 domain [1]): < 3.70
20 | QPIDNSFDIQSRDCIS [MAP3K4] | 40.0217 | 22.41 | 22.4108 | 25.9612 | 
21 | RLQKDIWDIQMRSKSL [GBP2] | 51.5267 | 28.85 | 28.8533 | 42.7122 | 
22 | SQQDAQEFLRALMDLL |  |  |  |  | mean_counts_% [5, 6]: 30.84%; specificity [5, 6]: 0.87; max_specificity [5, 8]: 0.87
23 | TWWDRYEEFVGLNEVR |  |  |  |  | mean_counts_% [5, 6]: 3.88%; specificity [5, 6]: 0.28; max_specificity [5, 8]: 0.28
24 | VAEMVALVEQRA |  |  |  |  | max_specificity [5, 8]: 1.00
25 | VAEMVALVEQRAALAL |  |  |  |  | mean_counts_% [5, 6]: 0.0147%; specificity [5, 6]: 0.48
26 | VKHPRFFALFEKHGGY [PPIP5K1] | -28.3983 | -15.9 | -15.9022 | -36.2833 | 
27 | WRFEQLEWRSILLDMA |  |  |  |  | max_specificity [5, 8]: 0.60

Reference: article PMC13376213, “Systematic discovery of motif-based interactions of the auxiliary domains of USP family deubiquitinases” (Nature Communications, 2026)
